# Measured values reported in patent US9034583B2, “Rapid enzyme-linked immunosorbent assay for detection and identification of pathogens and determination of antimicrobial susceptibility” (priority 2013, dated 2015).
# Legend:
# [1] = tested on: N. gonorrheae (Ceftriaxone Resistant); experiment: N-Assay antibiotic susceptibility, N. gonorrheae with Ceftriaxone (Example 6); format: cell-based, Neisseria gonorrheae; settings: With Ceftriaxone Present, 2 μg/ml
# Experimental: (§1) Prior to performing the N-Assay, bacterial cultures were prepared as follows in order to establish the sensitivity of the assay. An inoculum was taken from a stock culture, and plated onto solid phase nutrient agar and incubated overnight at 37° C. E. faecalis, E. faecium (Vancomycin-Resistant Enterococcus, or VRE) and GBS isolates were plated onto colistin and naladixic acid agar, and N. gonorrheae was plated onto chocolate agar. The gonorrheal culture was performed in a CO2 incubator. Following an overnight culture, an isolated colony was selected of each bacterial species, and the isolated colonies were sub-cultured on solid phase for an additional 24 hours to ensure adequate viability was maintained. Following this, isolated cultures were used to inoculate nutrient broth (LIM broth was used for GBS, Fastidious broth with isovitalex 2% v/v for N. gonorrheae, and BHI broth was used for E. faecalis, E. faecium). A 0.5 McFarland was prepared for each bacterial species, and these were then diluted serially down to 10^−3 in nutrient broth and the OD630 immediately was determined. For each dilution, aliquots were obtained and agar plates were inoculated. The agar plates then were incubated at 37° C. for 24 hours, and the number of colony forming units (CFU) was determined for each bacterial species at each dilution. This was used to generate a standard curve, so that future dilutions when prepared could be developed with known concentrations of bacteria. […] A similar curve was generated for each bacteria studied.
# (§2) Antibodies against selected bacteria were diluted 1:100 in coating buffer (carbonate bicarbonate buffer), and 100 μl were placed in microtiter wells and allowed to stand overnight at 4° C. The following day, wells were washed with PBS TWEEN 20 three times, and then blocked with 200 μl of STARTINGBLOCK for 30 minutes at room temperature. Following blocking, wells were washed three times with PBS TWEEN 20, and plates were either stored at 4° C. with a sterile cover placed over them for later use, or used immediately.
# (§3) To determine antibiotic susceptibility of the four strains of bacteria, a 0.5 Mcfarland was prepared in nutrient broth and serially dilutions were established. The dilutions were incubated overnight for 18-24 hours at 37° C. (in a CO2 incubator for N. gonorrheae) with specific antibiotics. Parallel dilutions were prepared of each bacterium, in the presence and absence of specific antibiotics, as follows: (1) for E. faecalis, E. faecium, Penicillin G was added in varying concentrations, and as these concentrations were held constant, the bacterial concentration was diluted out; (2) the same parameters were set for GBS with the antibiotic clindamycin; and (3) the same parameters were set for N. gonorrheae with the antibiotic ceftriaxone.
# (§4) Following overnight incubation in the presence or absence of the selected antibiotics, 100 μl of the bacterial suspensions were placed into previously coated wells, and plates were allowed to stand at room temperature for 15 minutes. After washing with PBS TWEEN 20 three times, 100 μl of HRP-conjugated antibody directed against the specific bacteria was added in a 1:100 dilution, and allowed to stand at room temperature for 7 minutes. Wells were washed three times with PBS TWEEN 20, and bound antibody was detected by the addition of 100 μl of TMB substrate. OD450) was read after allowing the plate to stand for 3 minutes at room temperature and stopping the reaction with stop solution (KPL).
# (§5) After adding stop solution, wells were read at OD450. […] Alternatively, wells were determined to be positive if they turned yellow after addition of the stop solution, if a plate reader was not available.
# (§6) These studies were repeated for E. faecalis, E. faecium and N. gonorrheae. For E. faecalis and E. faecium, Penicillin G was used to distinguish between E. faecalis and E. faecium, as E. faecium is resistant to Penicillin G. For N. gonorrheae, the antibiotic used was ceftriaxone.
# [2] = tested on: N. gonorrheae (Ceftriaxone Sensitive); experiment: as above; format: cell-based, Neisseria gonorrheae; settings: summary of Table 3
# Experimental: as §1, §2, §3, §4, §5, §6
# [3] = tested on: Clindamycin Resistant Strain (GBS 11276); experiment: N-Assay antibiotic susceptibility, GBS with Clindamycin (Example 6); format: cell-based, Group B Streptococcus (GBS); settings: for Detection of GBS: With Clindamycin Present, 4 μg/ml, 18 hour incubation in nutrient broth, resistant strain GBS 11276
# Experimental: as §1, §2, §3
# as §4, with “After washing with PBS TWEEN 20 three times, 100 μl of HRP-conjugated antibody directed against the specific bacteria was added in a 1:100 dilution, and allowed to stand at room temperature for 7 minutes.” left out
# After adding stop solution, wells were read at OD450. […] Alternatively, wells were determined to be positive if they turned yellow after addition of the stop solution, if a plate reader was not available. […]
# [4] = tested on: Enterococcus faecalis (Penicillin Sensitive); experiment: N-Assay antibiotic susceptibility, Enterococcus with Penicillin G (Example 6); format: cell-based; settings: for Detection of Enterococcus faecalis: With Penicillin Present, 8 μg/ml Penicillin G, 18 hour incubation in nutrient broth
# Experimental: as §1, §2, §3, §4, §5, §6
# [5] = tested on: Enterococcus faecium (Penicillin Resistant, i.e., VRE); experiment: as above; format: cell-based; settings: for Detection of Enterococcus faecium: With Penicillin Present, 8 μg/ml Penicillin G, 18 hour incubation in nutrient broth
# Experimental: as §1, §2, §3, §4, §5, §6
# [6] = tested on: penicillin-resistant (Pen-R) Strain 31426; experiment: Simultaneous identification of N. gonorrheae and antimicrobial susceptibility (Example 4); format: cell-based
# Experimental: (§7) Two strains of N. gonorrheae, penicillin-sensitive (Pen-S) Strain 1279 and penicillin-resistant (Pen-R) Strain 31426, were cultured overnight on Gc agar. A 0.5 McFarland was prepared immediately before wells were to be inoculated, and the two strains were each diluted to a concentration of 10^8 in FB. The bacteria-containing FB for each strain was split into four tubes, in which a different concentration of penicillin was added to each of the tubes of the two strains: 2.0 μg/ml, 1.0 μg/ml, 0.5 μg/ml, and buffer alone as a negative control. Microtiter wells were coated with 100 μl of a 1:200 dilution of rabbit polyclonal antibody directed against N. gonorrheae, and allowed to stand at 4 degrees Celsius overnight. […] Following blocking, wells were again washed three times with PBS. At this stage, the plates were either used immediately, or stored at 4 degrees Celsius for later use. Upon proceeding with the assay, 100 μl of the 10^8 dilution of the two strains of N. gonorrheae were placed in individual wells. The wells were shaken gently on a plate stirrer at room temperature for 15 minutes. Next, wells were washed three times with PBS, and 100 μl of an HRP-conjugated rabbit polyclonal antibody (1:50 dilution in PBS) directed against N. gonorrheae was added to the wells and incubated at room temperature for 5 minutes. Wells were washed three times with PBS, and then bound antibody was detected by the addition of 100 μl of TMB substrate. OD450) was read after allowing the plate to stand for three minutes at room temperature and stopping the reaction with stop solution (KPL). Negative controls consisted of the same preceding steps, but the addition of bacteria was omitted.
# [7] = tested on: penicillin-sensitive (Pen-S) Strain 1279; experiment: as above; format: cell-based; settings: penicillin 0.5, 1.0, 2.0 μg/ml, 10^8 bacteria
# Experimental: as §7
smiles,measurement,setting,value
"CO/N=C(\C(=O)N[C@@H]1C(=O)N2C(C(=O)O)=C(CSc3nc(=O)c(=O)[nH]n3C)CS[C@H]12)c1csc(N)n1 [Ceftriaxone, ceftriaxone]",Detection of Neisseria gonorrheae,"[1]; 18 hour incubation in nutrient broth, 0.1 CFU/ml",+
same,Detection of Neisseria gonorrheae,"[1]; 18 hour incubation in nutrient broth, 1 CFU/ml",+
same,Detection of Neisseria gonorrheae,"[1]; 18 hour incubation in nutrient broth, 10 CFU/ml",+
same,Detection of Neisseria gonorrheae,"[1]; 18 hour incubation in nutrient broth, 100 CFU/ml",+
same,Detection of Neisseria gonorrheae,"[1]; 18 hour incubation in nutrient broth, 1,000 CFU/ml",+
same,Detection of Neisseria gonorrheae,"[1]; 18 hour incubation in nutrient broth, 10,000 CFU/ml",+
same,N-Assay result of wells containing N. gonorrheae,[2],negative
"CCC[C@@H]1C[C@@H](C(=O)N[C@@H]([C@H]2O[C@H](SC)[C@H](O)[C@@H](O)[C@H]2O)[C@H](C)Cl)N(C)C1 [Clindamycin, clindamycin]",Detection of GBS,[3]; 10 CFU/ml,+
same,Detection of GBS,[3]; 100 CFU/ml,+
same,Detection of GBS,"[3]; 1,000 CFU/ml",+
same,Detection of GBS,"[3]; 10,000 CFU/ml",+
same,lowest dilution at which GBS resistant to Clindamycin was positive,"[3]; summary of Table 1, incubated 24 hours at 37° C. with Clindamycin",100 bacteria/ml
"CC1(C)S[C@@H]2[C@H](NC(=O)Cc3ccccc3)C(=O)N2[C@H]1C(=O)O [Penicillin G, penicillin G]",N-Assay result of wells containing E. faecalis,"[4]; Table 2, with Penicillin G",negative
same,Detection of Enterococcus faecalis,"[4]; 100,000 CFU/ml",+
same,Detection of Enterococcus faecalis,"[4]; 1,000,000 CFU/ml",+
same,Detection of Enterococcus faecalis,"[4]; 10,000,000 CFU/ml",+
same,lowest dilution at which E. faecium was positive,"[5]; Table 2, with Penicillin G",100 bacteria/ml
same,Detection of Enterococcus faecium,[5]; 1 CFU/ml,+
same,Detection of Enterococcus faecium,[5]; 10 CFU/ml,+
same,Detection of Enterococcus faecium,[5]; 100 CFU/ml,+
same,Detection of Enterococcus faecium,"[5]; 1,000 CFU/ml",+
same,Detection of Enterococcus faecium,"[5]; 10,000 CFU/ml",+
same,Detection of Enterococcus faecium,"[5]; 100,000 CFU/ml",+
same,Detection of Enterococcus faecium,"[5]; 1,000,000 CFU/ml",+
same,Detection of Enterococcus faecium,"[5]; 10,000,000 CFU/ml",+
same,OD450 signal of bound N. gonorrheae between concentrations of penicillin,"[6]; penicillin 0.5, 1.0, 2.0 μg/ml, 10^8 bacteria, Pen-R Strain 31426",did not significantly vary
same,growth by turbidity at OD600,[6]; wells containing Pen-R strain 31426 with penicillin,increasing turbidity
same,OD450 signal of bound N. gonorrheae with increasing concentrations of penicillin,[7],progressively decreasing positive signal
